Consider 51 compounds from patent US7112586B2, “Substituted diamine derivatives useful as motilin antagonists” (Ortho-McNeil Pharmaceutical, Inc., priority 2000, dated 2006).

The experiment deals with T1, Motilin Receptor (Oryctolagus cuniculus, UniProt G1T803).
T1 construct: The muscle tissue was homogenized in 10 volumes of 50 mM Tris-Cl; from tissue; host or cells: rabbit colon smooth muscle, crude membrane homogenate
The experiment is described as follows: Motilin receptor binding, rabbit colon membranes, 125I porcine motilin. On the set-up: Rabbit Colon % Inh / inhibition / % Inh (Rabbit colon): dose or concentration left out as unconfirmed. As to conditions: rabbit colon membranes; for inhibition: read-out: Rabbit Colon % Inh; for pIC50: read-out: Rabbit Colon IC50.

pIC50: −log10 of the molar value.

A word on the pIC50: it is the IC50 on a negative log10 scale, so that one unit is a factor of ten.

T1 sequence (G1T803 1-400): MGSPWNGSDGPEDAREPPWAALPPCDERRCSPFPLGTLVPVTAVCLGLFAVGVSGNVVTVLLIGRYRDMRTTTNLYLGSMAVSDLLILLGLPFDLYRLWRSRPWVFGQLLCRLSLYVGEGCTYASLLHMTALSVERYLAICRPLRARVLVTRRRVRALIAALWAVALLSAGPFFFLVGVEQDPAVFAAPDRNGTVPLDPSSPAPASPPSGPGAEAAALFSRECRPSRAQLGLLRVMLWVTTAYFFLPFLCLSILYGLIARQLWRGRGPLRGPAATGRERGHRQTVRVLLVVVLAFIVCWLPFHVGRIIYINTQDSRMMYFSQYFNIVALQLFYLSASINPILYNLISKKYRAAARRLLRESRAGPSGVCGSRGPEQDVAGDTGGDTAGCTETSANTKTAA

`O=C(CCCC(=O)N(Cc1ccc(C(F)(F)F)cc1)c1cccc(OCCN2CCOCC2)c1)N(CCc1ccccc1)Cc1ccccc1` [compound 172]: the “Rabbit Colon % Inh” value came to 40%.
With `O=C(c1ccc(F)cc1)N(CC1CCC(N(Cc2ccccn2)C(=O)C(Cl)(Cl)Cl)CC1)c1cccc(OCCN2CCOCC2)c1` (centres unmarked) [compound 174], the “Rabbit Colon % Inh” value is on record as 0%.
Still for that read-out and setting: the figure for `O=C(CCCC(=O)N(Cc1ccc(F)cc1)c1cccc(O)c1)N(CCc1ccccc1)Cc1ccccc1` [compound 175] is 0%.
On the same count and under the same terms, the figure for `O=C1CCCN1CCOc1cccc(N(Cc2ccc(F)cc2)C(=O)CCCC(=O)N(CCc2ccccc2)Cc2ccccc2)c1` [compound 176] is 32%; for `O=C(Nc1ccccc1)N(CC1CCC(N(Cc2ccccc2)C(=O)Cc2ccccc2)CC1)c1cccc(OCCN2CCOCC2)c1` (centres unmarked) [compound 183] it is 2%.
As for `COc1cccc(C(=O)N(Cc2cccc(Cl)c2)C2CCC(CN(C(=O)Nc3ccccc3)c3cccc(OCCN4CCOCC4)c3)CC2)c1` (centres unmarked) [compound 184], the “Rabbit Colon % Inh” value is 6%.
On the same count and under the same terms, the figure for `O=C(Nc1ccccc1)N(CC1CCC(N(Cc2cccc(Cl)c2)C(=O)c2ccco2)CC1)c1cccc(OCCN2CCOCC2)c1` (centres unmarked) [compound 185] is 0%.
Take `COc1cccc(C(=O)N(Cc2cccc([N+](=O)[O-])c2)C2CCC(CN(C(=O)Nc3ccccc3)c3cccc(OCCN4CCOCC4)c3)CC2)c1` (centres unmarked) [compound 186]: the “Rabbit Colon % Inh” value amounted to 0%.
With `CN(C)CCCOc1cccc(N(Cc2ccc(F)cc2)C(=O)CCCC(=O)N(CCc2ccccc2)Cc2ccccc2)c1` [compound 187], the inhibition amounted to 100% and the pIC50 was 6.64.
The matching figures for `CC(CC(=O)N(CCc1ccccc1)Cc1ccccc1)CC(=O)N(Cc1ccc(F)cc1)c1cccc(OCCN2CCOCC2)c1` (centres unmarked) [compound 189]: 70% and 6.52.
As for `O=C(CCCC(=O)N(Cc1ccc(F)cc1)c1ccc(OCCN2CCCC2)cc1)N(CCc1ccccc1)Cc1ccccc1` [compound 191], the “Rabbit Colon % Inh” value is given as 27%.
As for `O=C(CCCC(=O)N(Cc1ccc(F)cc1)c1ccc(OCCN2CCOCC2)cc1)N(CCc1ccccc1)Cc1ccccc1` [compound 192], the “Rabbit Colon % Inh” value is reported as 15%.
With `O=C(CCCC(=O)N(Cc1ccc(F)cc1)c1ccc(OCCCN2CCCCC2)cc1)N(CCc1ccccc1)Cc1ccccc1` [compound 193], the “Rabbit Colon % Inh” value was 7%.
As for `CN(C)CCOc1ccc(N(Cc2ccc(F)cc2)C(=O)CCCC(=O)N(CCc2ccccc2)Cc2ccccc2)cc1` [compound 194], the “Rabbit Colon % Inh” value was 23%.
As to `CCN(CC)CCOc1ccc(N(Cc2ccc(F)cc2)C(=O)CCCC(=O)N(CCc2ccccc2)Cc2ccccc2)cc1` [compound 195], the “Rabbit Colon % Inh” value was 62%.
Take `COc1cccc(CN(Cc2cccc(Cl)c2)C(=O)CCCC(=O)N(Cc2ccc(F)cc2)c2cccc(OCCN3CCCC3)c2)c1` [compound 198]: the inhibition was 100% and the pIC50 was 6.97.
In the case of `O=C(CCCC(=O)N(Cc1ccc(F)cc1)c1cccc(OCCN2CCCC2)c1)N(CCc1ccccc1)Cc1cc(Cl)cc(Cl)c1` [compound 199], the inhibition came to 91% and the pIC50 was 7.00.
The matching figures for `O=C(CCCC(=O)N(Cc1ccc(F)cc1)c1cccc(OCCN2CCCC2)c1)N(CCc1ccccc1)Cc1cccc(C(F)(F)F)c1` [compound 200]: 92% and 7.39.
For the compound `O=C(CCCC(=O)N(Cc1ccc(F)cc1)c1cccc(OCCN2CCCC2)c1)N(CCN1CCCC1)Cc1cccc(Cl)c1` [compound 203], the inhibition came out at 98% and the pIC50 is 6.62.
As for `O=C(CCCC(=O)N(Cc1ccc(F)cc1)c1cccc(OCCN2CCOCC2)c1)N(CCc1ccccc1)Cc1cccc([N+](=O)[O-])c1` [compound 205], the inhibition came to 76% and the pIC50 was 7.00.
The matching figures for `COc1cccc(CN(Cc2cccc(Cl)c2)C(=O)CCCC(=O)N(Cc2ccc(F)cc2)c2cccc(OCCN3CCOCC3)c2)c1` [compound 206]: 60% and 6.11.
In the case of `Cc1ccc(OCCN2CCCC2)cc1N(Cc1ccc(F)cc1)C(=O)CCCC(=O)N(CCc1ccccc1)Cc1ccccc1` [compound 207], the inhibition was 87% and the pIC50 was 7.19.
The matching figures for `O=C(c1ccc(F)cc1)N(CC1CCCC(N(Cc2cccc([N+](=O)[O-])c2)C(=O)C(Cl)(Cl)Cl)C1)c1cccc(OCCN2CCCC2)c1` (centres unmarked) [compound 211]: 100% and 7.85.
As to `O=C(c1ccc(F)cc1)N(CC1CCCC(N(Cc2cccc(Cl)c2)C(=O)C(Cl)(Cl)Cl)C1)c1cccc(OCCN2CCCC2)c1` (centres unmarked) [compound 212], the inhibition came to 89% and the pIC50 is 7.24.
The matching figures for `Cc1c(OCCN2CCCC2)cccc1N(Cc1ccc(F)cc1)C(=O)CCCC(=O)N(CCc1ccccc1)Cc1cccc(C(=O)O)c1` [compound 215]: 100% and 7.08.
The matching figures for `O=C(Nc1ccccc1)N(CC1CCCC(N(Cc2cccc(Cl)c2)C(=O)C(Cl)(Cl)Cl)C1)c1cccc(OCCN2CCCC2)c1` (centres unmarked) [compound 223]: 100% and 7.39.
In the same order, the values of `O=C(Nc1ccccc1)N(CC1CCCC(N(Cc2ccccc2)C(=O)C(Cl)(Cl)Cl)C1)c1cccc(OCCN2CCCC2)c1` (centres unmarked) [compound 224] are 98% and 7.41.
On to `CC(C)(C)C(=O)N(Cc1ccccc1)[C@@H]1CCC[C@H](CN(C(=O)Nc2ccccc2)c2cccc(OCCN3CCCC3)c2)C1` [compound 225], for which the inhibition is 93% and the pIC50 was 7.68.
The matching figures for `CCN(CC)CCOc1cccc(N(CC2CCCC(N(Cc3cccc(Cl)c3)C(=O)C(C)(C)C)C2)C(=O)c2ccc(F)cc2)c1` (centres unmarked) [compound 233]: 89% and 6.77.
On to `Cc1c(OCCN2CCOCC2)cccc1N(Cc1ccc(F)cc1)C(=O)CCCC(=O)N(CCc1ccccc1)Cc1ccccc1` [compound 234], for which the inhibition stood at 86% and the pIC50 is 6.66.
Regarding `CC(C)(C)C(=O)N(Cc1cccc(Cl)c1)C1CCCC(CN(C(=O)c2ccc(F)cc2)c2cccc(OCCN3CCCCC3)c2)C1` (centres unmarked) [compound 237], the inhibition came out at 96% and the negative logarithm of the IC50 (pIC50) was 6.77.
The matching figures for `O=C(c1ccc(F)cc1)N(CC1CCCC(N(Cc2cccc(Cl)c2)C(=O)C(Cl)(Cl)Cl)C1)c1cccc(OCCN2CCCCC2)c1` (centres unmarked) [compound 238]: 98% and 7.01.
Turning to `COc1cccc(CC(=O)N(Cc2cccc(Cl)c2)C2CCCC(CN(C(=O)c3ccc(F)cc3)c3cccc(OCCN4CCOCC4)c3)C2)c1` (centres unmarked) [compound 241], the “Rabbit Colon % Inh” value was found to be 14%.
The same measure, in the same setting: the figure for `O=C(c1ccc(F)cc1)N(CC1CCCC(N(Cc2cccc(Cl)c2)C(=O)CCC2CCCC2)C1)c1cccc(OCCN2CCOCC2)c1` (centres unmarked) [compound 242] is 36%.
Consider `COc1ccc(CC(=O)N(Cc2cccc(Cl)c2)C2CCCC(CN(C(=O)c3ccc(F)cc3)c3cccc(OCCN4CCOCC4)c3)C2)cc1` (centres unmarked) [compound 243], for which the “Rabbit Colon % Inh” value is given as 35%.
Still for that read-out and setting: the figure for `O=C(c1ccc(F)cc1)N(CC1CCCC(N(Cc2cccc(Cl)c2)C(=O)Cc2ccccc2)C1)c1cccc(OCCN2CCOCC2)c1` (centres unmarked) [compound 244] is 42%; for `COc1ccc(CC(=O)N(Cc2cccc(Cl)c2)C2CCCC(CN(C(=O)c3ccc(F)cc3)c3cccc(OCCN4CCOCC4)c3)C2)cc1OC` (centres unmarked) [compound 245] it is 40%; for `CC(C)(C)CC(=O)N(Cc1cccc(Cl)c1)C1CCCC(CN(C(=O)c2ccc(F)cc2)c2cccc(OCCN3CCOCC3)c2)C1` (centres unmarked) [compound 246] it is 73%.
In the case of `O=C(c1ccc(F)cc1)N(CC1CCCC(N(Cc2cccc(Cl)c2)C(=O)Cc2cccs2)C1)c1cccc(OCCN2CCOCC2)c1` (centres unmarked) [compound 248], the inhibition is 86% and the pIC50 was 6.12.
For the compound `O=C(c1ccc(F)cc1)N(CC1CCCC(N(Cc2cccc(Cl)c2)C(=O)Cc2ccc(F)cc2)C1)c1cccc(OCCN2CCOCC2)c1` (centres unmarked) [compound 249], the “Rabbit Colon % Inh” value turned out to be 22%.
Same read-out and setting: the figure for `CC(C)(C)c1ccc2c(c1)C(=O)N(C1CCCC(CN(C(=O)c3ccc(F)cc3)c3cccc(OCCN4CCOCC4)c3)C1)C2=O` (centres unmarked) [compound 250] is 0%; for `O=C(c1ccc(F)cc1)N(CC1CCCC(N2C(=O)c3ccc(F)cc3C2=O)C1)c1cccc(OCCN2CCOCC2)c1` (centres unmarked) [compound 251] it is 0%.
Turning to `O=C(c1ccc(F)cc1)N(CC1CCCC(N2C(=O)c3ccc4ccccc4c3C2=O)C1)c1cccc(OCCN2CCOCC2)c1` (centres unmarked) [compound 252], the “Rabbit Colon % Inh” value amounted to 15%.
Still for that read-out and setting: the figure for `Cc1ccc2c(c1)C(=O)N(C1CCCC(CN(C(=O)c3ccc(F)cc3)c3cccc(OCCN4CCOCC4)c3)C1)C2=O` (centres unmarked) [compound 253] is 30%; for `O=C(c1ccc(F)cc1)N(CC1CCCC(N2C(=O)CC3(CCCC3)CC2=O)C1)c1cccc(OCCN2CCOCC2)c1` (centres unmarked) [compound 254] it is 25%; for `O=C(c1ccc(F)cc1)N(CC1CCCC(N2C(=O)c3cc(Cl)c(Cl)cc3C2=O)C1)c1cccc(OCCN2CCOCC2)c1` (centres unmarked) [compound 255] it is 22%.
On the same count and under the same terms, the figure for `Cc1ccc2c(c1)C(=O)N(C1CCCC(CN(C(=O)c3ccc(F)cc3)c3cccc(OCCN4CCOCC4)c3)C1)C2=O` (centres unmarked) [compound 256] is 27%; for `O=C(c1ccc(F)cc1)N(CC1CCCC(N2C(=O)c3ccccc3C2=O)C1)c1cccc(OCCN2CCOCC2)c1` (centres unmarked) [compound 257] it is 0%.
Same read-out and setting: the figure for `CC1(C)CC(=O)N(C2CCCC(CN(C(=O)c3ccc(F)cc3)c3cccc(OCCN4CCOCC4)c3)C2)C(=O)C1` (centres unmarked) [compound 258] is 34%; for `O=C(c1ccc(F)cc1)N(CC1CCCC(N2C(=O)c3ccc(Br)cc3C2=O)C1)c1cccc(OCCN2CCOCC2)c1` (centres unmarked) [compound 259] it is 17%.
As for `CC(=O)Oc1ccc2c(c1)C(=O)N(C1CCCC(CN(C(=O)c3ccc(F)cc3)c3cccc(OCCN4CCOCC4)c3)C1)C2=O` (centres unmarked) [compound 260], the “Rabbit Colon % Inh” value was 30%.
